The results in this text go back to patent publication US20070191334A1, “Tricyclic imidazopyridines” (ALTANA PHARMA AG, priority 2004, published 2007).

In the assay the test system is pentagastrin-stimulated acid secretion of the perfused rat stomach. Put plainly: Secretion-inhibiting action on the perfused rat stomach (pentagastrin-stimulated acid secretion, intraduodenal administration in vivo). Particulars: Table A, dose 1 μmol/kg i.d., anesthetized CD rat. From the text: Testing of the Secretion-Inhibiting Action on the Perfused Rat Stomach
In Table A which follows, the influence of the compounds of the formula 1 according to the invention on the pentagastrin-stimulated acid secretion of the perfused rat stomach after intraduodenal administration in vivo is shown.
In Table B which follows, the influence of the compounds of the formula 1-a according to the invention and of their optical antipodes of the formula 1-b on the pentagastrin-stimulated acid secretion of the perfused rat stomach after intraduodenal administration in vivo is shown.
The abdomen of anesthetized rats (CD rat, female, 200-250 g; 1.5 g/kg i.m. urethane) was opened after tracheotomy by a median upper abdominal incision and a PVC catheter was fixed transorally in the esophagus and another via the pylorus such that the ends of the tubes just projected into the gastric lumen. The catheter leading from the pylorus led outward into the right abdominal wall through a side opening.
After thorough rinsing (about 50-100 ml), warm (37° C.) physiological NaCl solution was continuously passed through the stomach (0.5 ml/min, pH 6.8-6.9; Braun-Unita I). The pH (pH meter 632, glass electrode EA 147; φ=5 mm, Metrohm) and, by titration with a freshly prepared 0.01N NaOH solution to pH 7 (Dosimat 665 Metrohm), the secreted HCl were determined in the effluent in each case collected at an interval of 15 minutes.
The gastric secretion was stimulated by continuous infusion of […] (=1.65 ml/h) of i.v. pentagastrin (left femoral vein) about 30 min after the end of the operation (i.e. after determination of 2 preliminary fractions). The substances to be tested were administered intraduodenally in a 2.5 ml/kg liquid volume 60 min after the start of the continuous pentagastrin infusion. The body temperature of the animals was kept at a constant 37.8-38° C. by infrared irradiation and heat pads (automatic, stepless control by means of a rectal temperature sensor).

On to `Cc1nc2c3c(c(C(=O)NC4CC4)cn2c1C)CCC(c1ccccc1)O3` (centres unmarked) [Example 13, 2,3-Dimethyl-9-phenyl-7H-8,9-dihydro-pyrano[2,3-c]-imidazo[1,2-a]pyridine-6-carboxylic acid cyclopropylamide], for which the “Inhibition of acid secretion (%)” value is listed as greater than 70%.

Take `Cc1nc2c3c(c(C(=O)N4CCC4)cn2c1C)CCC(c1ccccc1)O3` (centres unmarked) [Example 11, (2,3-Dimethyl-9-phenyl-7H-8,9-dihydro-pyrano[2,3-c]-imidazo[1,2-a]pyridin-6-yl)-azetidin-1-yl methanone]: the “Inhibition of acid secretion (%)” value is greater than 70%.

As to `CC(=O)c1c(C)nc2c3c(c(C(=O)N(C)C)cn12)CCC(c1ccccc1)O3` (centres unmarked) [Example 9, 3-Acetyl-2-methyl-9-phenyl-7H-8,9-dihydro-pyrano[2,3-c]imidazo-[1,2-a]pyridine-6-carboxylic acid dimethylamide], the “Inhibition of acid secretion (%)” value was greater than 40%.

As to `COCCNC(=O)c1c(C)nc2c3c(c(C(=O)N(C)C)cn12)CCC(c1ccccc1)O3` (centres unmarked) [Example 4, 2-Methyl-9-phenyl-7H-8,9-dihydro-pyrano[2,3-c]imidazo[1,2-a]pyridine-3,6-dicarboxylic acid 3-[(2-methoxyethyl)amide]6-dimethylamide], the “Inhibition of acid secretion (%)” value is reported as greater than 40%.

Consider `CC#CC(=O)c1c(C)nc2c3c(c(C(=O)N(C)C)cn12)CCC(c1ccccc1)O3` (centres unmarked) [Example 6, 2-Methyl-3-(1-oxo-2-butynyl)-9-phenyl-7H-8,9-dihydro-pyrano[2,3-c]imidazo[1,2-a]pyridine-6-carboxylic acid dimethylamide], for which the “Inhibition of acid secretion (%)” value was greater than 40%.
